Literature values, collected in patent US20080187561A1, “Enteric Coated Didanosine Compositions Having A Subcoat” (priority 2007, published 2008).

Details: pH<3, 37° C., acidic solution

Question: With `OC[C@@H]1CC[C@H](n2cnc3c(O)ncnc32)O1` [didanosine, 2′,3′-dideoxyinosine] as the compound, how does the “Time in which 10% of didanosine decomposes to hypoxanthine” value read?
Answer: The value was “less than 2 minutes”.
